{"source": "paper PMC10945556", "about": "“Design, Synthesis, and Antifungal Activity of 3-Substituted-2(5H)-Oxaboroles” (ACS Medicinal Chemistry Letters, 2024)", "data": [{"test_system": "E. coli", "assay": "MIC, microbroth dilution", "assay_type": "cell-based, Escherichia coli", "details": "not given", "units": {"MIC EC": "mg/L"}, "values": [{"smiles": "OB1OCC=C1c1ccc(Cl)cc1", "note": "[Compound 6e]", "MIC EC": "25 ± 0"}, {"smiles": "CCCc1ccc(C2=CCOB2O)cc1", "note": "[Compound 6x]", "MIC EC": "21 ± 4"}]}, {"test_system": "E. coli", "assay": "MIC, microbroth dilution", "assay_type": "cell-based, Escherichia coli", "details": "Escherichia coli", "units": {"MIC": "mg/L"}, "values": [{"smiles": "OB1OCC=C1c1ccc(Cl)cc1", "note": "[Compound 6e]", "MIC": "20 to 50"}, {"smiles": "CCCc1ccc(C2=CCOB2O)cc1", "note": "[Compound 6x]", "MIC": "20 to 50"}]}, {"test_system": "E. coli", "assay": "MIC, microbroth dilution", "assay_type": "cell-based, Escherichia coli", "details": "Escherichia coli, value in parentheses", "units": {"MIC": "µM"}, "values": [{"smiles": "OB1OCC=C1c1ccc(Cl)cc1", "note": "[Compound 6e]", "MIC": 129}, {"smiles": "CCCc1ccc(C2=CCOB2O)cc1", "note": "[Compound 6x]", "MIC": 104}]}, {"test_system": "A. flavus", "assay": "MIC, dose-dependent solid media assay", "assay_type": "cell-based, Aspergillus flavus", "details": "Aspergillus flavus", "units": {"MIC": "mg/L"}, "values": [{"smiles": "OB1OCC=C1c1ccc(Cl)cc1", "note": "[Compound 6e]", "MIC": 50}, {"smiles": "CCCc1ccc(C2=CCOB2O)cc1", "note": "[Compound 6x]", "MIC": "> 50"}]}, {"test_system": "A. flavus", "assay": "MIC, dose-dependent solid media assay", "assay_type": "cell-based, Aspergillus flavus", "details": "Aspergillus flavus, value in parentheses", "units": {"MIC": "µM"}, "values": [{"smiles": "OB1OCC=C1c1ccc(Cl)cc1", "note": "[Compound 6e]", "MIC": 258}, {"smiles": "CCCc1ccc(C2=CCOB2O)cc1", "note": "[Compound 6x]", "MIC": "> 248"}]}, {"test_system": "B. cereus", "assay": "MIC, microbroth dilution", "assay_type": "cell-based, Bacillus cereus", "details": "Bacillus cereus", "units": {"MIC": "mg/L"}, "values": [{"smiles": "OB1OCC=C1c1ccc(Cl)cc1", "note": "[Compound 6e]", "MIC": "> 50"}, {"smiles": "CCCc1ccc(C2=CCOB2O)cc1", "note": "[Compound 6x]", "MIC": "> 50"}]}, {"test_system": "B. cereus", "assay": "MIC, microbroth dilution", "assay_type": "cell-based, Bacillus cereus", "details": "Bacillus cereus, value in parentheses", "units": {"MIC": "µM"}, "values": [{"smiles": "OB1OCC=C1c1ccc(Cl)cc1", "note": "[Compound 6e]", "MIC": "> 258"}, {"smiles": "CCCc1ccc(C2=CCOB2O)cc1", "note": "[Compound 6x]", "MIC": "> 248"}]}, {"test_system": "C. albicans", "assay": "MIC, microbroth dilution", "assay_type": "cell-based, Candida albicans", "details": "Candida albicans", "units": {"MIC": "mg/L"}, "values": [{"smiles": "OB1OCC=C1c1ccc(Cl)cc1", "note": "[Compound 6e]", "MIC": "> 50"}, {"smiles": "CCCc1ccc(C2=CCOB2O)cc1", "note": "[Compound 6x]", "MIC": "> 50"}]}, {"test_system": "C. albicans", "assay": "MIC, microbroth dilution", "assay_type": "cell-based, Candida albicans", "details": "Candida albicans, value in parentheses", "units": {"MIC": "µM"}, "values": [{"smiles": "OB1OCC=C1c1ccc(Cl)cc1", "note": "[Compound 6e]", "MIC": "> 258"}, {"smiles": "CCCc1ccc(C2=CCOB2O)cc1", "note": "[Compound 6x]", "MIC": "> 248"}]}, {"test_system": "S. cerevisiae", "assay": "MIC, microbroth dilution", "assay_type": "cell-based, Saccharomyces cerevisiae", "details": "Saccharomyces cerevisiae", "units": {"MIC": "mg/L"}, "values": [{"smiles": "OB1OCC=C1c1ccc(Cl)cc1", "note": "[Compound 6e]", "MIC": "5.2 ± 1"}, {"smiles": "CCCc1ccc(C2=CCOB2O)cc1", "note": "[Compound 6x]", "MIC": "10.4 ± 2"}]}, {"test_system": "S. cerevisiae", "assay": "MIC, microbroth dilution", "assay_type": "cell-based, Saccharomyces cerevisiae", "details": "Saccharomyces cerevisiae, value in parentheses", "units": {"MIC": "µM"}, "values": [{"smiles": "OB1OCC=C1c1ccc(Cl)cc1", "note": "[Compound 6e]", "MIC": 26.8}, {"smiles": "CCCc1ccc(C2=CCOB2O)cc1", "note": "[Compound 6x]", "MIC": 51.5}]}, {"test_system": "Methicillin resistant Staphylococcus aureus", "assay": "MIC, microbroth dilution", "assay_type": "cell-based", "details": "Staphylococcus aureus, S. aureus (MRSA)", "units": {"MIC": "mg/L"}, "values": [{"smiles": "OB1OCC=C1c1ccc(Cl)cc1", "note": "[Compound 6e]", "MIC": "> 50"}, {"smiles": "CCCc1ccc(C2=CCOB2O)cc1", "note": "[Compound 6x]", "MIC": "> 50"}]}, {"test_system": "Methicillin resistant Staphylococcus aureus", "assay": "MIC, microbroth dilution", "assay_type": "cell-based", "details": "Staphylococcus aureus, S. aureus (MRSA), value in parentheses", "units": {"MIC": "µM"}, "values": [{"smiles": "OB1OCC=C1c1ccc(Cl)cc1", "note": "[Compound 6e]", "MIC": "> 258"}, {"smiles": "CCCc1ccc(C2=CCOB2O)cc1", "note": "[Compound 6x]", "MIC": "> 248"}]}, {"test_system": "E. coli", "assay": "Growth inhibition screen in liquid medium", "assay_type": "cell-based, Escherichia coli", "details": "screen at 50 and 12.5 μg/mL", "from_the_text": "These included four bacterial pathogens [Bacillus cereus (Gram-positive), Methicillin resistant Staphylococcus aureus (Gram-positive), Pseudomonas aeruginosa (Gram-negative), and Escherichia coli (Gram-negative)], a fungal pathogen (Candida albicans), and a yeast (Saccharomyces cerevisiae). […] Commercially available tavaborole, cycloheximide, and nystatin were also screened as benchmarks. […] In addition, the 3-substituted oxaboroles were screened in a dose-dependent manner on solid media against three spore-forming fungal pathogens: Trichophyton mentagrophytes, Penicillium chrysogenum, and Aspergillus flavus (Figures 2B and S152–S192). The compounds could not be screened for growth inhibition in liquid media against these pathogens due to clumping of the mycelia, which impeded the absorbance readings.", "values": [{"smiles": "OB1OCC=C1c1ccc(Cl)cc1", "note": "[Compound 6e]", "growth inhibition of E. coli": "inhibited the growth"}, {"smiles": "CCCc1ccc(C2=CCOB2O)cc1", "note": "[Compound 6x]", "growth inhibition of E. coli": "inhibited the growth"}]}, {"test_system": "P. aeruginosa", "assay": "MIC, microbroth dilution", "assay_type": "cell-based, Pseudomonas aeruginosa", "details": "Pseudomonas aeruginosa", "units": {"MIC": "mg/L"}, "values": [{"smiles": "OB1OCC=C1c1ccc(Cl)cc1", "note": "[Compound 6e]", "MIC": "> 50"}, {"smiles": "CCCc1ccc(C2=CCOB2O)cc1", "note": "[Compound 6x]", "MIC": "> 50"}]}, {"test_system": "P. aeruginosa", "assay": "MIC, microbroth dilution", "assay_type": "cell-based, Pseudomonas aeruginosa", "details": "Pseudomonas aeruginosa, value in parentheses", "units": {"MIC": "µM"}, "values": [{"smiles": "OB1OCC=C1c1ccc(Cl)cc1", "note": "[Compound 6e]", "MIC": "> 258"}, {"smiles": "CCCc1ccc(C2=CCOB2O)cc1", "note": "[Compound 6x]", "MIC": "> 248"}]}, {"test_system": "rat myoblast cells (H9c2)", "assay": "Cell viability assay against H9c2 cell line", "assay_type": "cell-based", "details": "concentrations up to 100 μM, 24 h", "protocol": "(§1) In general, very little growth inhibition was observed against either Gram-positive or Gram-negative bacterial pathogens. […] The SAR for the antibacterial is dissimilar to that observed for the antifungal properties.\n(§2) Figure 3 (A) Cell viability assay against H9c2 cell line at 100 μM for 24 h (normalized to PBS no treatment), (B) Hemolytic assay at 50 and 100 μM for 1 h (normalized to triton X-100 positive control). Error bars in both graphs represent standard error of mean (SEM) of replicates (n = 3).", "values": [{"smiles": "CCCc1ccc(C2=CCOB2O)cc1", "note": "[Compound 6x]", "cytotoxic effects against rat myoblast cells (H9c2)": "none"}]}, {"test_system": "P. chrysogenum", "assay": "MIC, dose-dependent solid media assay", "assay_type": "cell-based, Penicillium chrysogenum", "details": "Penicillium chrysogenum", "units": {"MIC": "mg/L"}, "values": [{"smiles": "OB1OCC=C1c1ccc(Cl)cc1", "note": "[Compound 6e]", "MIC": 12.5}, {"smiles": "CCCc1ccc(C2=CCOB2O)cc1", "note": "[Compound 6x]", "MIC": 12.5}]}, {"test_system": "P. chrysogenum", "assay": "MIC, dose-dependent solid media assay", "assay_type": "cell-based, Penicillium chrysogenum", "details": "Penicillium chrysogenum, value in parentheses", "units": {"MIC": "µM"}, "values": [{"smiles": "OB1OCC=C1c1ccc(Cl)cc1", "note": "[Compound 6e]", "MIC": 64.4}, {"smiles": "CCCc1ccc(C2=CCOB2O)cc1", "note": "[Compound 6x]", "MIC": 61.9}]}, {"test_system": "not listed separately", "assay": "Hemolytic assay", "assay_type": "cell-based", "details": "50 and 100 μM for 1 h", "protocol": "as §1, §2", "values": [{"smiles": "CCCc1ccc(C2=CCOB2O)cc1", "note": "[Compound 6x]", "hemolytic activity": "none possessed hemolytic activity"}]}, {"test_system": "T. mentagrophytes", "assay": "MIC, dose-dependent solid media assay", "assay_type": "cell-based, Trichophyton mentagrophytes", "details": "Trichophyton mentagrophytes", "units": {"MIC": "mg/L"}, "values": [{"smiles": "OB1OCC=C1c1ccc(Cl)cc1", "note": "[Compound 6e]", "MIC": 50}, {"smiles": "CCCc1ccc(C2=CCOB2O)cc1", "note": "[Compound 6x]", "MIC": 50}]}, {"test_system": "T. mentagrophytes", "assay": "MIC, dose-dependent solid media assay", "assay_type": "cell-based, Trichophyton mentagrophytes", "details": "Trichophyton mentagrophytes, value in parentheses", "units": {"MIC": "µM"}, "values": [{"smiles": "OB1OCC=C1c1ccc(Cl)cc1", "note": "[Compound 6e]", "MIC": 258}, {"smiles": "CCCc1ccc(C2=CCOB2O)cc1", "note": "[Compound 6x]", "MIC": 248}]}]}
